This note sets out measurements from BindingDB's records for doi:10.1021/jm070133w (Nci-Fcrdc, 2007).

Where only a bound is given, the exact number is not on record here.

The target of the assay is T1, Glutamate carboxypeptidase 2 [44-750] (Homo sapiens, UniProt Q04609).
T1 construct: 44-750
The assay is described as follows: Determination of Inhibition Concentration Values (IC50). The settings on record: pH 7.4; 37 °C. Here is the method: The inhibition concentration values of GCPII were determined using the radioenzymatic assay with [3H] NAAG (radiolabeled on the terminal glutamate). The enzyme was preincubated in the presence of increasing concentrations of inhibitors in reaction buffer. The reaction was initiated by adding the substrate to the reaction mixtures. After 20 min, the reaction was terminated, and the glutamate was separated from the reaction mixture by ion-exchange chromatography and quantified by liquid scintillation. Duplicate reactions were carried out for each experimental point. The IC50 values were calculated from plots of Vi/V0 (ratio of individual reaction rates to the rate of an uninhibited reaction) versus inhibitor concentration using the GraFit program (version 5.0.4, Erithacus Software Limited).

T1 sequence (Q04609 44-750): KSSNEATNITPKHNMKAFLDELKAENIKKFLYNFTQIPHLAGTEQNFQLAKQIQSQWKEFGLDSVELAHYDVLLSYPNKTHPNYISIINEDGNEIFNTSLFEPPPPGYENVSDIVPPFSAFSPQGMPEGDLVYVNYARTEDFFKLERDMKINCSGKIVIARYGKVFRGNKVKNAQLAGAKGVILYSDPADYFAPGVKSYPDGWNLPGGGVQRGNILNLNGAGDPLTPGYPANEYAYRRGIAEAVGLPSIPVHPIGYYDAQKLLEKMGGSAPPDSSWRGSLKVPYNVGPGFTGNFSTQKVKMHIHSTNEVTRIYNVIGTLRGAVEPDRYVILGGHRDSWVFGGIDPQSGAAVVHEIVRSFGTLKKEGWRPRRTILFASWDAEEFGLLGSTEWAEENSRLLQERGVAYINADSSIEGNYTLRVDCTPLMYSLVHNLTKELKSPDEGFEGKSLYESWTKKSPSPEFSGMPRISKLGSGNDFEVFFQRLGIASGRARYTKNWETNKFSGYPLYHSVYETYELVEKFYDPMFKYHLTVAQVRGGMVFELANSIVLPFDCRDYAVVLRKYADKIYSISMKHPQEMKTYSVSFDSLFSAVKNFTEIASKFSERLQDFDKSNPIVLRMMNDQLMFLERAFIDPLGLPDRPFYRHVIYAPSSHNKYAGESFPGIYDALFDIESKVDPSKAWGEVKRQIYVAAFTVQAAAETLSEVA

`Cc1onc(O)c1C[C@H](N)C(=O)O` gave an IC50 of more than 10 mM.
